Where two headings read alike, the source gives them in different places.
What was measured:
[1] = test system: PHA-stimulated splenocytes; experiment: Proliferative response of PHA-stimulated splenocytes (MTT assay); type: cell-based; conditions: PHA 5 μg/ml, 72 hr; compounds at 5 μM (method says 10 μM); ratio of O.D. versus vehicle control
In short: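 Freshly prepared splenocytes (1×10^6 cells/well) were cultured for 72 h at 37° C with compound at 10 μM final, with or without PHA (5 μg/ml). Viability was read by MTT (4 h), with absorbance at 570 nm against 690 nm reference. Stimulation index is the OD ratio of treated versus vehicle cultures.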

[2] = test system: HCT116 (colon) carcinoma cell line; experiment: Anti-tumor properties, MTT; type: cell-based; conditions: Homo sapiens, HCT-116; read-out: IC50 (μM) HCT116 (colon)
In short: (§1)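 Cells seeded at 10×10^3 per well for 24 h, then exposed to compound in serum-free medium (final up to 100 μM, 0.5% DMSO vehicle) for 72 h in triplicate. Viability by MTT reduction (4 h, SDS solubilised), absorbance 595 nm/ref 620 nm; IC50 from survival curves.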

[3] = test system: MCF7 (breast) carcinoma cell line; experiment: Anti-tumor properties, MTT; type: cell-based; conditions: Homo sapiens, MCF7; read-out: IC50 (μM) MCF7 (breast)
In short: as §1

[4] = test system: HepG2 (hepatocellular) carcinoma cell line; experiment: Anti-tumor properties, MTT; type: cell-based; conditions: Homo sapiens, HepG2; read-out: IC50 (μM) HepG2 (liver)
In short: as §1

[5] = test system: PC3 (prostate) carcinoma cell line; experiment: Anti-tumor properties, MTT; type: cell-based; conditions: Homo sapiens
[6] = test system: A-549 (lung) carcinoma cell line; experiment: Anti-tumor properties, MTT; type: cell-based; conditions: Homo sapiens, A549
[7] = test system: Streptococcus pyogenes ATCC19615; experiment: Antimicrobial MIC, agar dilution
[8] = test system: lipopolysaccharide-stimulated peritoneal macrophages; experiment: Production of nitric oxide by lipopolysaccharide-stimulated peritoneal macrophages (Greiss reagent); type: cell-based; parameters: Potency (%): % inhibition of nitric oxide production relative to lipopolysaccharide-stimulated macrophages: concentration or dose not given beside the values; conditions: LPS-stimulated peritoneal macrophages; for Nitric oxide (nitrite) concentration, μM (average ± SD): 24 h, nitrite by Greiss reagent
In short: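 Macrophages in nitrite-free medium with 0.1% BSA were stimulated with LPS at 0.5–10 ng/ml, some wells also receiving epinephrine, norepinephrine or dopamine at […], for 24 h at 37° C. Nitrite in supernatants was measured with Greiss reagent, 15 min at room temperature, absorbance 532 nm.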

[9] = test system: Pseudomonas aeruginosa ATCC27853; experiment: Antimicrobial MIC, agar dilution
[10] = test system: Candida albicans (local isolate); experiment: Antimicrobial MIC, agar dilution; conditions: Candida albicans, read-out: Minimum inhibitory concentration (MIC)
[11] = test system: Staphylococcus aureus ATCC25923; experiment: Antimicrobial MIC, agar dilution
[12] = test system: Salmonella typhi ATCC19430; experiment: Antimicrobial MIC, agar dilution; type: cell-based; conditions: Salmonella enterica, read-out: Minimum inhibitory concentration (MIC)
[13] = ATCC19615, 18 h, read-out: Minimum inhibitory concentration (MIC)
[14] = ATCC19615, read-out: Minimum inhibitory concentration (MIC)
[15] = ATCC27853, 18 h, read-out: Minimum inhibitory concentration (MIC)
[16] = ATCC27853, read-out: Minimum inhibitory concentration (MIC)
[17] = ATCC25923, 18 h, read-out: Minimum inhibitory concentration (MIC)
[18] = ATCC25923, read-out: Minimum inhibitory concentration (MIC)

Row | SMILES | Stimulation Index (average ± SD) [1] | IC50 [2] [µM] | IC50 [3] [µM] | IC50 [4] [µM] | IC50 [5] [µM] | IC50 [6] [µM] | MIC [7, 13] [µg/mL] | MIC [7, 14] [µM] | Potency (%): % inhibition of nitric oxide production relative to lipopolysaccharide-stimulated macrophages [8] [%] | Nitric oxide (nitrite) concentration, μM (average ± SD) [8] [µM] | MIC [9, 15] [µg/mL] | MIC [9, 16] [µM] | MIC ([10]; 18 h) [µg/mL] | MIC [10] [µM] | MIC [11, 17] [µg/mL] | MIC [11, 18] [µM] | MIC ([12]; 18 h) [µg/mL] | MIC [12] [µM]
1 | COc1cc(/C=C/C(=O)CC(=O)/C=C/c2ccc(OC(=O)CNC(=O)OC(C)(C)C)c(OC)c2)ccc1OC(=O)CNC(=O)OC(C)(C)C [Boc-Gly-Cur, ((1E,6E)-3,5-dioxohepta-1,6-diene-1,7-diyl)bis(2-methoxy-4,1-phenylene) bis(2-((tert-butoxycarbonyl)amino)acetate)] | 2.11 ± 0.16 | > 100 | 17.2 | > 100 | > 100 | 80.9 | 1 | 1.47 | 33.65 | 18.12 ± 1.41 | 0.25 | 0.366 | 0.5 | 0.732 | 0.25 | 0.366 | 0.125 | 0.183
2 | COc1cc(/C=C/C(=O)CC(=O)/C=C/c2ccc(OC(=O)[C@H](C)NC(=O)OC(C)(C)C)c(OC)c2)ccc1OC(=O)[C@H](C)NC(=O)OC(C)(C)C [Boc-L-Ala-Cur, ((1E,6E)-3,5-dioxohepta-1,6-diene-1,7-diyl)bis(2-methoxy-4,1-phenylene) (2S,2′S)-bis(2-((tert-butoxycarbonyl)amino)propanoate)] | 2.71 ± 0.28 | > 100 | 25.1 | > 100 | > 100 | > 100 | 0.25 | 0.352 | 22.02 | 21.30 ± 1.72 | 1 | 1.41 | 1 | 1.41 | 0.125 | 0.176 | 0.125 | 0.176
3 | COc1cc(/C=C/C(=O)CC(=O)/C=C/c2ccc(OC(=O)[C@H](CCC(N)=O)NC(=O)OC(C)(C)C)c(OC)c2)ccc1OC(=O)[C@H](CCC(N)=O)NC(=O)OC(C)(C)C [Boc-L-Gln-Cur, ((1E,6E)-3,5-dioxohepta-1,6-diene-1,7-diyl)bis(2-methoxy-4,1-phenylene) (2S,2′S)-bis(5-amino-2-((tert-butoxycarbonyl)amino)-5-oxopentanoate)] | 2.14 ± 0.23 | > 100 | 8.48 | 70.6 | 39.1 | 30.9 | 0.25 | 0.303 | 22.29 | 21.22 ± 1.50 | 1 | 1.21 | 2 | 2.42 | 0.125 | 0.152 | 0.125 | 0.152
4 | CC[C@H](C)[C@H](NC(=O)OC(C)(C)C)C(=O)Oc1ccc(/C=C/C(=O)CC(=O)/C=C/c2ccc(OC(=O)[C@@H](NC(=O)OC(C)(C)C)[C@@H](C)CC)c(OC)c2)cc1OC [Boc-L-Ile-Cur, ((1E,6E)-3,5-dioxohepta-1,6-diene-1,7-diyl)bis(2-methoxy-4,1-phenylene) (2S,2′S,3S,3′S)-bis(2-((tert-butoxycarbonyl)amino)-3-methylpentanoate)] | 2.07 ± 0.10 | > 100 | 49.6 | > 100 | > 100 | > 100 | 0.25 | 0.314 | 23.82 | 20.81 ± 0.68 | 1 | 1.26 | 2 | 2.52 | 0.125 | 0.157 | 0.125 | 0.157
5 | COc1cc(/C=C/C(=O)CC(=O)/C=C/c2ccc(OC(=O)[C@@H](NC(=O)OC(C)(C)C)C(C)C)c(OC)c2)ccc1OC(=O)[C@@H](NC(=O)OC(C)(C)C)C(C)C [Boc-L-Val-Cur, ((1E,6E)-3,5-dioxohepta-1,6-diene-1,7-diyl)bis(2-methoxy-4,1-phenylene) (2S,2′S)-bis(2-((tert-butoxycarbonyl)amino)-3-methylbutanoate)] | 1.84 ± 0.06 | > 100 | ≥ 100 | > 100 | > 100 | > 100 | 2 | 2.61 | 29.35 | 19.29 ± 0.39 | 2 | 2.61 | 1 | 1.3 | 0.25 | 0.326 | 0.25 | 0.326
6 | COc1cc(/C=C/C(=O)CC(=O)/C=C/c2ccc(OC(=O)CCNC(=O)OC(C)(C)C)c(OC)c2)ccc1OC(=O)CCNC(=O)OC(C)(C)C [Boc-β-Ala-Cur, ((1E,6E)-3,5-dioxohepta-1,6-diene-1,7-diyl)bis(2-methoxy-4,1-phenylene) bis(3-((tert-butoxycarbonyl)amino)propanoate)] | 1.70 ± 0.24 | > 100 | 13.2 | > 100 | > 100 | > 100 | 0.25 | 0.352 | 32.81 | 18.35 ± 1.61 | 0.25 | 0.352 | 0.5 | 0.703 | 0.25 | 0.352 | 0.5 | 0.703
7 | COc1cc(/C=C/C(=O)CC(=O)/C=C/c2ccc(OC(=O)[C@H](C)N)c(OC)c2)ccc1OC(=O)[C@H](C)N.Cl.Cl [HCl-L-Ala-Cur, (2S,2′S)-1,1′-((((1E,6E)-3,5-dioxohepta-1,6-diene-1,7-diyl)bis(2-methoxy-4,1-phenylene))bis(oxy))bis(1-oxopropan-2-aminium) chloride] | 1.14 ± 0.18 | 38.8 | 10.7 | 33.8 | 31.5 | 21.7 | 0.5 | 0.857 | 46.24 | 14.68 ± 1.20 | 0.25 | 0.428 | 0.5 | 0.857 | 0.5 | 0.857 | 0.5 | 0.857
8 | COc1cc(/C=C/C(=O)CC(=O)/C=C/c2ccc(OC(=O)[C@@H](N)CCC(N)=O)c(OC)c2)ccc1OC(=O)[C@@H](N)CCC(N)=O.Cl.Cl [HCl-L-Gln-Cur, (2S,2′S)-1,1′-((((1E,6E)-3,5-dioxohepta-1,6-diene-1,7-diyl)bis(2-methoxy-4,1-phenylene))bis(oxy))bis(5-amino-1,5-dioxopentan-2-aminium) chloride] | 2.22 ± 0.20 | 41 | 9.15 | 39.1 | 34.4 | 21.1 | 0.5 | 0.717 | 20.35 | 21.75 ± 1.31 | 0.5 | 0.717 | 0.125 | 0.179 | 0.25 | 0.358 | 0.125 | 0.179

— patent publication US10660967B2, “Curcumin conjugates and methods of use thereof” (priority 2016, dated 2020)
